One experiment relates to isolated pig islets. Nature of the experiment: Glucose-induced insulin secretion from isolated pig islets, static incubation with pharmacological PKC/PKA activators. It counts as cell-based. The settings on record: 2 h, PMA 20 nM and/or forskolin 1 μM. The procedure:
FIG. 1 is a histogram showing the insulin secretion from adult and neonate isolated pig islets. […] Insulin secretion was measured in the incubation media and expressed as a percentage of total insulin content of each batch of islets. The numbers above the columns represent the fold increase of insulin secretion in test groups compared to 15 mM glucose alone. * p<0.05. […] Finally, insulin was quantified in recovered media and in incubated islets by radioimmuno-assay.

The next experiment has as its system MIN6 cells. Nature of the experiment: Glucose-induced insulin secretion from transfected MIN6 cells, static incubation. The format is cell-based, murine. Particulars: MIN6 cells 48 h after plasmid transfection; 2 h in 1 or 15 mM glucose; control cells 2.2. As for the experimental part: FIG. 2 is a histogram showing glucose-induced insulin secretion from transfected Min6 cells incubated with 1 (G1) or 15 mM (G15) glucose. The numbers above pairs of columns represent the stimulation ratio (G15/G1) in each group. * p<0.05 indicates significant difference between test groups and controls. Values are means±SEM for n=15-21 from 7 different experiments.
To verify the effect of the transgenic proteins on insulin secretion, transfected and control MIN6 cells were challenged by an increase of glucose concentration during static incubation experiments. Insulin secretion was measured and the stimulation index i.e., the ratio between insulin secretion at high glucose and insulin secretion at low glucose, of transgenic and control cells was calculated. In brief, 2·10^5 cells were seeded in 12-well plates and cultivated for 48 h before they were transfected with one the plasmids carrying the GLP-1 (7-37) gene (GLP-1), the mutated GLP-1 (7-A8S-37) gene (GLP-1 Ser8) or the constitutively activated muscarinic receptor gene (M3). Control cells were simply exposed to Lipofectamine without any plasmidic DNA. 48 h after transfection, cells were starved then incubated for 2 h in a 1 mL Krebs-Ringer buffer containing either 1 or 15 mM glucose. Insulin secretion was measured in the incubation media and expressed as a percentage of total insulin content of the cells.

The next experiment concerns adult pig islets. Nature of the experiment: Dynamic islet perifusion, glucose-induced insulin secretion of virus-treated adult pig islets. Particulars: adenoviral vector MOI 200, 48 h, perifused G1 then 30 min G15. It counts as cell-based. As for the experimental part: FIG. 4 is a graph showing the insulin secretion of isolated adult pig islets exposed to 200 MOI viral expression vectors carrying sequences coding for GLP-1 (GLP-1 Ser8), activated muscarinic receptor (M3R) or both (GLP-1+M3R) during 48 hours. Batches of 600 islets were perifused in krebs medium containing 1 mM glucose (G1) then 15 mM glucose (G15) as indicated on top of the figure. Insulin secretion was then measured in the effluent fractions. Values are means±SEM for n=3-4 from 4 different preparations.
The effect of transgenic PKA and PKC activation on glucose-induced insulin secretion was also tested during dynamic islet perifusion experiments. Control and virus-treated adult islets were placed in perifusion chambers sealed with 0.2 μm filters. Islets were first perifused with 1 mM glucose (G1) krebs medium during 30 minutes for equilibrium then during 10 minutes in G1 with media collection every 2 minutes followed by 30 minutes stimulation with G15.

The source of these data is patent publication US11160836B2, “Transgenic pig islets and uses thereof for treating diabetes” (priority 2014, dated 2021).

Regarding `CCCCCCCCCCCCCC(=O)O[C@@H]1[C@@H](C)[C@@]2(O)[C@@H](C=C(CO)C[C@]3(O)C(=O)C(C)=C[C@@H]23)[C@@H]2C(C)(C)[C@]12OC(C)=O` [PMA, phorbol myristate acetate], the “fold increase of insulin secretion compared to 15 mM glucose alone” value with isolated pig islets (islets from adult pigs) is 2 fold; with isolated pig islets (islets from neonate pigs), “up to 8 fold”.

With GLP-1, in the experiment on MIN6 cells, the “stimulation index (insulin secretion G15/G1)” value was found to be 2.6. In addition, the “effect on acute glucose-induced insulin secretion during perifusion, in words” value in the experiment on adult pig islets is “virtually no effect”.
